# Results from the supplement of paper PMC10307832.
# Experiments:
# Test in all cases: relative viability (nuclei count vs DMSO), 5 days (fraction); higher = more cells survive
# [1] = compound: CCN1C(=O)C2=CC(=C(N=C2N(C1=O)C3CC3)N)C(=O)N + CC(=O)c1c(C)c2cnc(Nc3ccc(N4CCNCC4)cn3)nc2n(C2CCCC2)c1=O [Palbociclib] (partner 0.5 µM)
# Summary of the method: (§1)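 Relative viability divides the nuclei count in treated wells by that in vehicle wells. Lung cancer cell lines were seeded in 1536-well plates, dosed by pin tool the next day, and fixed and stained after 5 days in one step with final 0.05% Triton X-100, 1% formaldehyde and 1 ug/ml Hoechst. Dosing was a single drug or a fixed anchor-drug dose plus five library-drug doses (not always all listed) in √10 steps, and values are medians of duplicate plates imaged at 4×.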
# [2] = compound: CCN1C(=O)C2=CC(=C(N=C2N(C1=O)C3CC3)N)C(=O)N + Cc1cc(Nc2cc(N3CCN(C)CC3)nc(Sc3ccc(NC(=O)C4CC4)cc3)n2)n[nH]1 [Tozasertib] (partner 0.1 µM)
# Summary of the method: as §1
# [3] = compound: CCN1C(=O)C2=CC(=C(N=C2N(C1=O)C3CC3)N)C(=O)N + NC(=O)Nc1cc(-c2cccc(F)c2)sc1C(=O)N[C@H]1CCCNC1 [AZD7762] (partner 0.2 µM)
# Summary of the method: as §1
# [4] = compound: CCN1C(=O)C2=CC(=C(N=C2N(C1=O)C3CC3)N)C(=O)N + Cc1nc(Nc2ncc(C(=O)Nc3c(C)cccc3Cl)s2)cc(N2CCN(CCO)CC2)n1 [Dasatinib] (partner 0.075 µM)
# Summary of the method: as §1
# [5] = compound: CCN1C(=O)C2=CC(=C(N=C2N(C1=O)C3CC3)N)C(=O)N + CC(=O)Nc1cccc(-n2c(=O)n(C3CC3)c(=O)c3c(Nc4ccc(I)cc4F)n(C)c(=O)c(C)c32)c1 [Trametinib] (partner 0.02 µM)
# Summary of the method: as §1
Cell Line,relative viability ([1]; first compound 0.253 µM),relative viability ([1]; first compound 0.8 µM),relative viability ([1]; first compound 2.53 µM),relative viability ([1]; first compound 8 µM),relative viability ([2]; first compound 0.253 µM),relative viability ([2]; first compound 0.8 µM),relative viability ([2]; first compound 2.53 µM),relative viability ([2]; first compound 8 µM),relative viability ([3]; first compound 0.253 µM),relative viability ([3]; first compound 0.8 µM),relative viability ([3]; first compound 2.53 µM),relative viability ([3]; first compound 8 µM),relative viability ([4]; first compound 0.253 µM),relative viability ([4]; first compound 0.8 µM),relative viability ([4]; first compound 2.53 µM),relative viability ([4]; first compound 8 µM),relative viability ([5]; first compound 0.253 µM),relative viability ([5]; first compound 0.8 µM),relative viability ([5]; first compound 2.53 µM),relative viability ([5]; first compound 8 µM)
LCLC-103H,0.446,0.481,0.479,0.456,0.468,0.487,0.472,0.48,0.76,0.83,0.768,0.838,0.453,0.426,0.457,0.445,0.741,0.663,0.705,0.662
NCI-H1915,0.531,0.508,0.493,0.526,0.451,0.33,0.393,0.416,0.722,0.7,0.712,0.594,0.294,0.307,0.312,0.285,0.297,0.294,0.305,0.337
ChaGo-K-1,0.898,0.97,0.897,0.99,0.218,0.215,0.221,0.2,0.873,0.863,0.89,0.872,0.6,0.664,0.614,0.527,0.922,0.951,0.861,0.875
PC-3 [JPC-3],0.545,,0.559,0.52,0.911,0.872,0.925,0.869,0.813,,0.966,0.748,1.05,1.04,1.05,0.973,0.686,,0.686,0.736
NCI-H1437,0.337,0.323,0.315,0.245,0.378,0.42,0.374,0.411,1.03,1.09,1.17,1.14,0.404,0.367,0.464,0.418,0.609,0.468,0.527,0.406
NCI-H1734,0.346,0.328,0.363,0.36,0.373,0.278,0.233,0.25,0.514,0.543,0.51,0.566,0.437,0.459,0.425,0.453,0.742,0.593,0.609,0.74
LK-2,0.705,0.565,0.683,0.974,0.184,0.173,0.149,0.161,0.516,0.348,0.359,0.608,0.312,0.294,0.303,0.221,0.756,0.715,0.727,0.795
HCC-15,0.764,0.731,0.675,0.712,0.46,0.389,0.385,0.502,1.18,1.45,1.18,1.31,0.634,0.598,0.61,0.598,0.412,0.382,0.369,0.429
